Assay [1] concerns the target T1, AHR (Homo sapiens, UniProt P35869).
T1 sequence (P35869 11-848): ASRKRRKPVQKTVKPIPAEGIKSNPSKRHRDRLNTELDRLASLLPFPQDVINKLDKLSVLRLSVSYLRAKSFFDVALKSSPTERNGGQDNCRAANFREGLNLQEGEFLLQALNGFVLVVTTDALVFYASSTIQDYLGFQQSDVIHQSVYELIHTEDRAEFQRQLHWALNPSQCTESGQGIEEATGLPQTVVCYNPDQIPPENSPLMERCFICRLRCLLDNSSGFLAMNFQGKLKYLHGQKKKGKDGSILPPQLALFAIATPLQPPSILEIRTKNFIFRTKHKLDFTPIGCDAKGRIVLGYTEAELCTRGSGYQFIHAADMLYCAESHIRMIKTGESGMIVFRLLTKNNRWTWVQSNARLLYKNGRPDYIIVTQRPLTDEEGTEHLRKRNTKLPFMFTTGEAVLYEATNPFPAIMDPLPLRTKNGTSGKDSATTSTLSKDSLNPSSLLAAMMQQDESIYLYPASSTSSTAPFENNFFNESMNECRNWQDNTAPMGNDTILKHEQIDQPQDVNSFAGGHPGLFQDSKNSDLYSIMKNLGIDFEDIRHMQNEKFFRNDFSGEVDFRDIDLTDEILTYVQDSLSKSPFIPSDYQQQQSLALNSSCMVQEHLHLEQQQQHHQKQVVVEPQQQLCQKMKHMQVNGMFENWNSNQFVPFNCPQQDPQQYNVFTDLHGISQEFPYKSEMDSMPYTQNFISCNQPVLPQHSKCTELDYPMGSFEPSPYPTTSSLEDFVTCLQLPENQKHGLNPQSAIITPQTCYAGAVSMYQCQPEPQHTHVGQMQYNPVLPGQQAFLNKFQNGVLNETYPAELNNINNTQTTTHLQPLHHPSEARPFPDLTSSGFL
Description: In vitro assay 1: antagonism in human cell line (transactivation assay, U87 cells prestimulated with kynurenic acid, DRE firefly luciferase reporter). Type of assay: cell-based. Further details: host or cells: U87 glioblastoma cells, stably transfected with DRE firefly luciferase and renilla reporter constructs. The conditions noted are these: 150 uM kynurenic acid, 20 hours, read-out: Assay 1: AHR-luc Hum Antagonism IC50. A digest of the protocol:
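Antagonism measured after kynurenic acid prestimulation in U87 cells that express AHR endogenously and stably harbor a firefly luciferase gene under DRE control plus a constitutive renilla construct. Positive and negative controls served for normalization.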
Background: A reporter such as luciferase makes a cellular process visible.

The target of assay [2] is T1, AHR. The assay is described as follows: In vitro assay 2: agonism in human cell line (transactivation assay, U87 cells, DRE firefly luciferase reporter). Type of assay: cell-based. Further details: host or cells: U87 glioblastoma cells, stably transfected with DRE firefly luciferase and renilla reporter constructs. Conditions: no kynurenic acid, 20 hours, read-out: Assay 2: AHR-luc Hum Agonism IC50. A digest of the protocol: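 Agonist readout: DRE firefly luciferase, with constitutive renilla reporter, in stably transfected U87 cells expressing AHR endogenously. Normalization used positive control (300 uM kynurenic acid) and negative control.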

In general, IC50 refers to the midpoint of a concentration-inhibition curve.

With `Cn1cc(-n2nc(-c3ccc(C(F)(F)F)cc3)cc(C(=O)N[C@@H]3COC[C@@H]3O)c2=O)cn1` (relative stereo) [Example 215, N-cis-4- Hydroxytetrahyd rofuran-3-yl-2-(1-methyl-1H-pyrazol-4-yl)-3-oxo-6-[4-(trifluoromethyl)phenyl]-2,3-dihydropyridazine-4-carboxamide], the IC50 on AHR [1] is 0.00221 µM; on AHR [2], over 20 µM.
In the case of `C[C@]1(O)CCC[C@H]1NC(=O)c1cc(-c2ccc(OC(F)(F)F)cc2)nn(-c2cccnc2)c1=O` (relative stereo) [Example 328, N-[(cis)-2-Hydroxy-2-methylcyclopentyl]-3-oxo-2-(pyridin-3-yl)-6-[4-(trifluoromethoxy)phenyl]-2,3-dihydropyridazine-4-carboxamide], the IC50 on AHR [1] is 0.0306 µM; on AHR [2], over 20 µM.
The like results for `O=C(N[C@@H]1CC[C@@H]1O)c1cc(-c2ccc(C(F)(F)F)cc2)nn(-c2cccnc2)c1=O` (relative stereo) [Example 224, N-cis-2- Hydroxycyclobutyl-3-oxo-2-(pyridin-3-yl)-6-[4-(trifluoromethyl)phenyl]-2,3-dihydropyridazine-4-carboxamide] were, in that order, 0.00437 µM and over 20 µM.
Take `COC[C@H](CO)NC(=O)c1cc(-c2ccc(Cl)cc2)nn(-c2cncc(F)c2)c1=O` [Example 86, 6-(4-Chlorophenyl)-2-(5-fluoropyridin-3-yl)-N-[(2S)-1-hydroxy-3-methoxypropan-2-yl]-3-oxo-2,3-dihydropyridazine-4-carboxamide]: the values for the IC50 on AHR [1] and at AHR [2] were 0.0559 µM and over 20 µM, respectively.
The like results for `O=C(N[C@H]1CCC[C@@H]1O)c1cc(-c2ccc(C(F)F)nc2)nn(-c2cccnc2)c1=O` [Example 165, 6-[6-(Difluoromethyl)pyridin-3-yl]-N-[(1S,2S)-2-hydroxycyclopentyl]-3-oxo-2-(pyridin-3-yl)-2,3-dihydropyridazine-4-carboxamide] were, in that order, 0.209 µM and over 20 µM.
For `O=C(NC[C@H](O)C(F)(F)F)c1cc(-c2ccc(Cl)cc2)nn(-c2ccnnc2)c1=O` [Example 321, 3-(4-Chlorophenyl)-6-oxo-N-[(2S)-3,3,3-trifluoro-2-hydroxypropyl]-6H-1,4′-bipyridazine-5-carboxamide] the same measures were 0.0506 µM and over 20 µM.
On to `O=C(NC[C@H](O)C(F)(F)F)c1cc(-c2ccc(Cl)cc2)nn(-c2cnsc2)c1=O` [Example 199, 6-(4-Chlorophenyl)-3-oxo-2-(1,2-thiazol-4-yl)-N-[(2S)-3,3,3-trifluoro-2-hydroxypropyl]-2,3-dihydropyridazine-4-carboxamide], for which the figures for the IC50 at AHR [1] and at AHR [2] were 0.000694 µM and over 20 µM, respectively.
For `O=C(N[C@@H]1COC[C@@H]1O)c1cc(-c2ccc(Cl)cc2)nn(-c2cncc(F)c2)c1=O` (relative stereo) [Example 301, 6-(4-Chlorophenyl)-2-(5-fluoropyridin-3-yl)-N-[(cis)-4-hydroxytetrahydro-furan-3-yl]-3-oxo-2,3-dihydropyridazine-4-carboxamide] the same measures were 0.031 µM and over 20 µM.
For `O=C(N[C@H](CO)C1CC1)c1cc(-c2ccc(Cl)cc2)nn(-c2cncnc2)c1=O` [Example 273, 6-(4-Chlorophenyl)-N-[(1S)-1-cyclopropyl-2-hydroxyethyl]-3-oxo-2-(pyrimidin-5-yl)-2,3-dihydropyridazine-4-carboxamide] the same measures were 0.101 µM and over 20 µM.
For `O=C(N[C@H]1COC[C@H]1O)c1cc(-c2ccc(OC(F)(F)F)cc2)nn(-c2cccnc2)c1=O` (relative stereo) [Example 157, N-[(cis)-4-Hydroxytetrahydrofuran-3-yl]-3-oxo-2-(pyridin-3-yl)-6-[4-(trifluoromethoxy)phenyl]-2,3-dihydropyridazine-4-carboxamide] the same measures were 0.0393 µM and over 20 µM.
As to `Cn1cc(-n2nc(-c3ccc(Cl)cc3)cc(C(=O)NC[C@H](O)CF)c2=O)cn1` [Example 270, 6-(4-Chlorophenyl)-N-[(2S)-3-fluoro-2-hydroxypropyl]-2-(1-methyl-1H-pyrazol-4-yl)-3-oxo-2,3-dihydropyridazine-4-carboxamide], the IC50 is 0.0645 µM at AHR [1] and over 20 µM at AHR [2].
For `O=C(N[C@@H]1CC[C@@H]1O)c1cc(-c2ccc(C(F)(F)F)cc2)nn(-c2cccnc2)c1=O` (single isomer, unassigned) [Example 268, (−)-N-cis-2-Hydroxycyclo-butyl-3-oxo-2-(pyridin-3-yl)-6-[4-(trifluoromethyl)phenyl]-2,3-dihydropyridazine-4-carboxamide] the same measures were 0.0569 µM and over 20 µM.
The like results for `O=C(N[C@H](CO)C(F)(F)F)c1cc(-c2ccc(Cl)cc2)nn(-c2cncc(F)c2)c1=O` [Example 100, 6-(4-Chlorophenyl)-2-(5-fluoropyridin-3-yl)-3-oxo-N-[(2R)-1,1,1-trifluoro-3-hydroxypropan-2-yl]-2,3-dihydropyridazine-4-carboxamide] were, in that order, 0.0127 µM and over 20 µM.
The like results for `Cn1cc(-n2nc(-c3ccc(Cl)cc3)cc(C(=O)N[C@@H]3COC[C@@H]3O)c2=O)cn1` (racemic) [Example 43, 6-(4-Chlorophenyl)-N-[(cis)-4-hydroxytetrahydrofuran-3-yl]-2-(1-methyl-1H-pyrazol-4-yl)-3-oxo-2,3-dihydropyridazine-4-carboxamide] were, in that order, 0.023 µM and over 20 µM.
With `C[C@H](NC(=O)c1cc(-c2ccc(C(F)(F)F)cc2)nn(-c2cccnc2)c1=O)C(C)(C)O` [Example 226, N-[(2S)-3-Hydroxy-3-methylbutan-2-yl]-3-oxo-2-(pyridin-3-yl)-6-[4-(trifluoromethyl)phenyl]-2,3-dihydropyridazine-4-carboxamide], the results for the IC50 at AHR [1] and on AHR [2] were 0.00591 µM and over 20 µM, respectively.
In the case of `C[C@@H](CO)NC(=O)c1cc(-c2ccc(Cl)cc2)nn(-c2ccnnc2)c1=O` [Example 177, 3-(4-Chlorophenyl)-N-[(2S)-1-hydroxypropan-2-yl]-6-oxo-6H-1,4′-bipyridazine-5-carboxamide], the IC50 on AHR [1] was 0.465 µM; at AHR [2], over 20 µM.
For `C[C@@H](NC(=O)c1cc(-c2ccc(C(F)(F)F)cc2)nn(-c2cnn(C)c2)c1=O)C(C)(C)O` [Example 202, N-[(2R)-3-Hydroxy-3-methylbutan-2-yl]-2-(1-methyl-1H-pyrazol-4-yl)-3-oxo-6-[4-(trifluoromethyl)phenyl]-2,3-dihydropyridazine-4-carboxamide] the same measures were 0.000825 µM and over 20 µM.
Regarding `CC(NC(=O)c1cc(-c2ccc(Cl)cc2)nn(-c2cccnc2)c1=O)C(O)C(F)(F)F` (single isomer, unassigned) [Example 298, 6-(4-Chlorophenyl)-3-oxo-2-(pyridin-3-yl)-N-(4,4,4-trifluoro-3-hydroxybutan-2-yl)-2,3-dihydropyridazine-4-carboxamide], the IC50 at AHR [1] was 0.00369 µM; on AHR [2], over 20 µM.
For `Cc1ccc(-c2cc(C(=O)N[C@H](C)CO)c(=O)n(-c3cnn(C)c3)n2)cc1` [Example 9, N-[(2R)-1-Hydroxypropan-2-yl]-6-(4-methylphenyl)-2-(1-methyl-1H-pyrazol-4-yl)-3-oxo-2,3-dihydropyridazine-4-carboxamide] the same measures were 0.164 µM and over 20 µM.
Take `Cn1cc(-n2nc(-c3ccc(OC(F)(F)F)cc3)cc(C(=O)N[C@@H]3COC[C@@H]3O)c2=O)cn1` (single isomer, unassigned; enantiomer 2) [Example 57, N-[(cis)-4-Hydroxytetrahydrofuran-3-yl]-2-(1-methyl-1H-pyrazol-4-yl)-3-oxo-6-[4-(trifluoromethoxy)phenyl]-2,3-dihydropyridazine-4-carboxamide, Enantiomer 2]: the IC50 is 0.00748 µM at AHR [1] and over 20 µM on AHR [2].
The like results for `CC(C)[C@@H](CO)NC(=O)c1cc(-c2ccc(Cl)cc2)nn(-c2cncc(F)c2)c1=O` [Example 83, 6-(4-Chlorophenyl)-2-(5-fluoropyridin-3-yl)-N-[(2S)-1-hydroxy-3-methylbutan-2-yl]-3-oxo-2,3-dihydropyridazine-4-carboxamide] were, in that order, 0.00461 µM and over 20 µM.

Values taken from US12522594B2, “2-heteroaryl-3-oxo-2,3-dihydropyridazine-4-carboxamides for the treatment of cancer” (Deutsches Krebsforschungszentrum, priority 2017, dated 2026).
